The assay deals with PAF receptor (Oryctolagus cuniculus, UniProt G1TEI7). As to the kind of experiment: Inhibition of PAF induced platelet aggregation in rabbit platelet rich plasma (PRP). The arrangement: immediately centrifuged at 800 rpm for 10 minutes at room temperature to recover the platelet rich plasma (PRP); endogenous in cells; host or cells: rabbit platelets in platelet rich plasma (male New Zealand White rabbits). To be noted: rabbit platelet rich plasma. Type of assay: cell-based, rabbit (male New Zealand White). The protocol:
Platelet activating factor (PAF) compounds were evaluated as PAF receptor antagonists in vitro by measuring inhibition of PAF induced platelet aggregation. Platelet aggregation was measured by a modification of the method of A. Wissner, et. al., J. Med. Chem., 27, 1174, 1984.
Approximately 120-240 ml of blood were collected by cardiac puncture from unanesthetized male New Zealand White rabbits (Whaley's Summit View Farms, Belvedere, N.J.) with the use of 3.2% sodium citrate anticoagulant (1 part of citrate/10 parts of blood). All syringes and pipets were plastic. The blood was gently mixed and immediately centrifuged at 800 rpm for 10 minutes at room temperature to recover the platelet rich plasma (PRP). Platelet poor plasma (PPP) was prepared by centrifuging PRP at 2800 rpm for 10 minutes at room temperature.
Dilutions (1:3000) Of PRP in Isoton diluent were made and platelet counts were determined on a Coulter Thrombocounter which was standardized with platelet reference standards (Interscience Platelet Control, Portland, Oreg.). PRP platelet counts were adjusted to 500,000 platelets/μl by the addition of PPP.
L-PAF was obtained from Calbiochem. A stock solution of 1-2 E-3M was prepared in 10% ethanol in water and serial working dilutions were made using phosphate buffered saline (PBS). 1-2 E-3M stock solutions of test compounds were prepared in 100% methanol and serially diluted in PBS. All solutions were made up in plastic tubes, stored on ice and protected from heat and light. Solutions were prepared fresh or frozen at -20° C. and used within 48 hours.
Incubation mixtures consisted of 400 μl PRP, 50 μl of PBS diluent or test compound and 50 μl of PAF agonist. More specifically, 400 μl of PRP was stabilized in a cuvette for 1-2 minutes at 37° C. in the aggregometer to achieve a stable baseline, then 50 μl of PBS or test compound, was added and incubated for 5 minutes before addition of the challenge concentration of PAF ([…], as determined from the dose response curve for PAF for that experiment). Aggregation was monitored for 5 minutes. Samples containing test compound or diluent were run simultaneously for comparison. Test compounds were initially evaluated at a screening concentration of 1E-5M. Those producing ≥ 50% inhibition of the magnitude of aggregation were then reevaluated in a dose response fashion (final concentrations 1E-7M to 5E-5M) and IC50 values were determined. Ki values were also calculated in some cases from [formula] where Ki =inhibitory constant
IC50 =molar concentration of test compound which gives 50% inhibition
[PAF]=molar concentration of PAF used as challenges
EC50 =molar concentration of PAF which gives 50% of maximal aggregation.
The recording equipment consisted of single or dual channel Chronolog aggregometers connected to dual channel 10 MV full scale deflection Omniscribe chart recorders (Houston Instruments). […] The bead suspension was used to set the 0% light transmission mark and clear water was used to set the 100% light transmission mark. These limits defined a full scale deflection. The aggregation traces were analyzed by a digitizing method (C. Kohler and B. Zoltan, J. Pharm. Methods, 12, 113, 1984) with x, y coordinate data stored in a computer file. A suitable program computed parameters of interest such as the magnitude of aggregation.

The mark [1] stands for this setting: PAF challenge 1E-6M, read-out: IC50 (M) PRP, inhibition of PAF-induced platelet aggregation.
Where [2] appears, read: PAF challenge 1E-7M, read-out: IC50 (M) PRP, inhibition of PAF-induced platelet aggregation.
[3] abbreviates: PAF challenge 5E-8M, read-out: IC50 (M) PRP, inhibition of PAF-induced platelet aggregation.
[4] abbreviates: IC50 (M) PRP, inhibition of PAF-induced platelet aggregation, PAF challenge 1E-6M.
Setting [5] is: IC50 (M) PRP, inhibition of PAF-induced platelet aggregation, PAF challenge 1E-7M.
The mark [6] stands for this setting: IC50 (M) PRP, inhibition of PAF-induced platelet aggregation, PAF challenge 5E-8M.

This note sets out measurements from patent US5411983A, “Certain hyrdoxy-phosphinyl-oxy-phenylmethyl-imidazolium hydroxide inner salts as PAF antagonists” (American Cyanamid Company, priority 1993, dated 1995).

Structures can show the parent of a compound that is named as a salt. Where two headings read alike, the source gives them in different places.

Sequence of PAF receptor (G1TEI7 1-342): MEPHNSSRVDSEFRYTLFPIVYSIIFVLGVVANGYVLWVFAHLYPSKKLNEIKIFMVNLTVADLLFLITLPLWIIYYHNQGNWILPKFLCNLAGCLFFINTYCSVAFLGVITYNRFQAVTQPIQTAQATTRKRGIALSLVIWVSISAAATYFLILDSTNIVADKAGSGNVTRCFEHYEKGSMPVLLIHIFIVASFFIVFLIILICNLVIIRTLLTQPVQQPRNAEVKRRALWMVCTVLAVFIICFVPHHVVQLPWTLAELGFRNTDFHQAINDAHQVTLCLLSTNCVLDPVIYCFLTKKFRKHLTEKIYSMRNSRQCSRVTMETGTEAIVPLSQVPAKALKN

With `CCCCCCCCCCCCCCCCOCC(COC(=O)c1cccc(C[n+]2ccsc2)c1)OC` (stereo not drawn) [3-[[3-[[3-(Hexadecyloxy)-2-methoxypropoxy]carbonyl]phenyl]methyl]thiazolium, bromide], the concentration for half-maximal inhibition (IC50) is, setting by setting: under setting [1], 4.9e-05 M; under setting [2], 6.1e-06 M; under setting [3], 3.6e-06 M.

In the case of `CCCCCCCCCCOCCOCCOCC(COP(=O)([O-])Oc1cccc(C[n+]2csc(C)c2)c1)OC` (stereo not drawn) [3-[[3-[[1-Hydroxy-4-methoxy-2,6,9,12-tetraoxa-1-phosphadocosyl]oxy]phenyl]-methyl]-5-methylthiazolium, hydroxide, inner salt, P-oxide], the IC50 is, setting by setting: under setting [4], 9.4e-05 M; under setting [5], 3.9e-06 M; under setting [6], 2.2e-06 M.

For `CCCCCCCCCCCCCCc1cccc(OCC(COP(=O)([O-])Oc2cccc(C[S+](C)C)c2)OC)c1` (stereo not drawn) [[[3-[[Hydroxy-[2-methoxy-3-(3-tetradecylphenoxy]propoxy]phosphinyl]oxy]-phenyl]methyl]dimethylsulfouium, hydroxide, inner salt], the IC50 was found to be 2.9e-05 M under setting [5] and 3.4e-06 M under setting [6].

Compound `COC(COCc1ccc(OCc2ccc(Cl)cc2)cc1)COP(=O)([O-])Oc1cccc(C[n+]2ccsc2)c1` (stereo not drawn) [3-[[3-[[[3-[[4-[(4-Chlorophenyl)methoxy]phenyl]methoxy]-2-methoxypropoxy]hydroxyphosphinyl]oxy]phenyl]methyl]thiazolium, hydroxide, inner salt] returned an IC50 under setting [6] of 3e-05 M.

With `CCCCCCCCCCCCCCCCOCC(COCc1cccc(C[n+]2ccsc2)c1)OC` (stereo not drawn) [3-[[3-[[3-(Hexadecyloxy)-2-methoxypropoxy]methyl]phenyl]methyl]thiazolium bromide], the half-maximal inhibitory concentration (IC50) was determined as 2.6e-05 M under setting [1], 3.7e-06 M under setting [2] and 1.3e-06 M under setting [3].

For `C=C(C)COC(COCCCCCCCCCCCCCCCC)COP(=O)([O-])Oc1ccccc1C[n+]1ccsc1` (stereo not drawn) [3-[[2-[[[3-(Hexadecyloxy)-2-[(2-methyl-2-propenyl)oxy]propoxy]hydroxyphosphinyl]oxy]phenyl]methyl]thiazolium, hydroxide, inner salt], the IC50 under setting [6] was 2.6e-06 M.

`CCCCCCCCCCCCCCCCCCNC(=O)OCC(COP(=O)([O-])Oc1cccc(C[N+](C)(C)C)c1)OC` (stereo not drawn) [3-[(1-(Hydroxy-4-methoxy-7-oxo-2,6-dioxa-8-aza-1-phosphahexacosyl)oxy]- --N, --N, --N-trimethylbenzenemethanaminium, hydroxide, inner salt, P-oxide]: the IC50 under setting [6] came to 0.0001 M.

As to `CCCCCCCCCCCCCCCCCC(=O)NCC(COCCCCCCCCCCCCCCCC)COP(=O)([O-])Oc1cccc(C[n+]2ccsc2)c1` (stereo not drawn) [3-[[3-[[[(2-[(Hexadecyloxy)methyl]-3-[(1-oxooctadecyl)amino]propoxy]hydroxy-phosphinyl]oxy]phenyl]methyl]thiazolium, hydroxide, inner salt], the half-inhibitory concentration (IC50) is, setting by setting: under setting [5], 0.00013 M; under setting [6], 4.8e-05 M.

`COC(COCc1ccc(OCc2ccccc2)cc1)COP(=O)([O-])Oc1cccc(C[n+]2ccsc2)c1` (stereo not drawn) [3-[[3-[(Hydroxy[2-methoxy-3-[[4-(phenylmethoxy)phenyl]methoxy]propoxy]phosphinyl]oxy]phenyl]methyl)thiazolium, hydroxide, inner salt] came in with an IC50 under setting [6] of 0.0004 M.

For `C=C(C)COC(COCCCCCCCCCCCCCCCC)COP(=O)([O-])Oc1cccc(C[n+]2ccsc2)c1` (stereo not drawn) [3-[[3-[[[3-(Hexadecyloxy)-2-[(2-methyl-2-propenyl)oxy]propoxy]hydroxyphosphinyl]oxy]phenyl]methyl]thiazolium, hydroxide, inner salt], the 50% inhibitory concentration (IC50) was 3.9e-05 M under setting [4], 2.6e-06 M under setting [5] and 2.1e-06 M under setting [6].

Compound `CCCCCCCCCCCCOc1cccc(OCC(COP(=O)([O-])Oc2cccc(C[N+](C)(C)C)c2)OC)c1C` (stereo not drawn) [3-[[[3-[3-(Dodecyloxy)-2-methylphenoxy]-2-methoxypropoxy]hydroxyphosphinyl]oxy]-N,N,N-trimethylbenzenemethanaminum, hydroxide, inner salt] returned an IC50 under setting [6] of 6e-06 M.
